How the values were obtained:
Type in all cases: in vivo
Conditions in all cases: Rate 1000 g/ha; evaluated after 13 days
[1] = system: Alopecurus myosuroides (ALOMY); assay: B1 pre-emergence herbicidal activity
Method: (§1) Seeds of a variety of test species were sown in standard soil in pots: Triticum aestivium (TRZAW), Oryza sativa (ORYSA), Avena fatua (AVEFA), Alopecurus myosuroides (ALOMY), Echinochloa crus-galli (ECHCG), Lolium perenne (LOLPE). After cultivation for one day (pre-emergence) under controlled conditions in a glasshouse (at 24/16° C., day/night; 14 hours light; 65% humidity), the plants were sprayed with an aqueous spray solution derived from the formulation of the technical active ingredient in acetone/water (50:50) solution containing 0.5% Tween 20 (polyoxyethelyene sorbitan monolaurate, CAS RN 9005-64-5). The test plants were then grown in a glasshouse under controlled conditions (at 24/16° C., day/night; 14 hours light; 65% humidity) and watered twice daily. After 13 days, the test was evaluated (5=total damage to plant; 0=no damage to plant).

[2] = system: Triticum aestivium (TRZAW); assay: B1 pre-emergence herbicidal activity
Method: as §1

Lolium perenne (LOLPE) [3] = assay: B1 pre-emergence herbicidal activity
Method: as §1

Avena fatua (AVEFA) [4] = assay: B1 pre-emergence herbicidal activity
Method: as §1

[5] = system: Echinochloa crus-galli (ECHCG); assay: B1 pre-emergence herbicidal activity
Method: as §1

Oryza sativa (ORYSA) [6] = assay: B1 pre-emergence herbicidal activity
Method: as §1

[7] = system: Alopecurus myosuroides (ALOMY); assay: B2 post-emergence herbicidal activity
Method: (§2) Seeds of a variety of test species were sown in standard soil in pots: Triticum aestivium (TRZAW), Oryza sativa (ORYSA), Avena fatua (AVEFA), Alopecurus myosuroides (ALOMY), Echinochloa crus-galli (ECHCG), Lolium perenne (LOLPE). After 8 days cultivation (post-emergence) under controlled conditions in a glasshouse (at 24/16° C., day/night; 14 hours light; 65% humidity), the plants were sprayed with an aqueous spray solution derived from the formulation of the technical active ingredient in acetone/water (50:50) solution containing 0.5% Tween 20 (polyoxyethelyene sorbitan monolaurate, CAS RN 9005-64-5). The test plants were then grown in a glasshouse under controlled conditions (at 24/16° C., day/night; 14 hours light; 65% humidity) and watered twice daily. After 13 days, the test was evaluated (5=total damage to plant; 0=no damage to plant).

[8] = system: Triticum aestivium (TRZAW); assay: B2 post-emergence herbicidal activity
Method: as §2

Lolium perenne (LOLPE) [9] = assay: B2 post-emergence herbicidal activity
Method: as §2

Avena fatua (AVEFA) [10] = assay: B2 post-emergence herbicidal activity
Method: as §2

[11] = system: Echinochloa crus-galli (ECHCG); assay: B2 post-emergence herbicidal activity
Method: as §2

Oryza sativa (ORYSA) [12] = assay: B2 post-emergence herbicidal activity
Method: as §2

| SMILES | Control of ALOMY after pre-emergence application (damage score 0-5) [1] | Control of TRZAW after pre-emergence application (damage score 0-5) [2] | Control of LOLPE after pre-emergence application (damage score 0-5) (Lolium perenne (LOLPE) [3]) | Control of AVEFA after pre-emergence application (damage score 0-5) (Avena fatua (AVEFA) [4]) | Control of ECHCG after pre-emergence application (damage score 0-5) [5] | Control of ORYSA after pre-emergence application (damage score 0-5) (Oryza sativa (ORYSA) [6]) | Control of ALOMY after post-emergence application (damage score 0-5) [7] | Control of TRZAW after post-emergence application (damage score 0-5) [8] | Control of LOLPE after post-emergence application (damage score 0-5) (Lolium perenne (LOLPE) [9]) | Control of AVEFA after post-emergence application (damage score 0-5) (Avena fatua (AVEFA) [10]) | Control of ECHCG after post-emergence application (damage score 0-5) [11] | Control of ORYSA after post-emergence application (damage score 0-5) (Oryza sativa (ORYSA) [12]) |
| --- | --- | --- | --- | --- | --- | --- | --- | --- | --- | --- | --- | --- |
| CN(C(=O)Oc1ccccc1)c1cn(-c2cncc(F)c2)nc1C(F)(F)F [Compound A46] | 0 | 0 | 0 | 0 | 0 | 0 | 0 | 0 | 1 | 2 | 2 | 0 |
| CCOC(=O)N(C)c1cn(-c2cncc(F)c2)nc1C(F)(F)F [Compound A47] | 0 | 0 | 0 | 0 | 1 | 0 | 1 | 1 | 0 | 2 | 4 | 0 |
| CN(C(=O)OC(C)(C)C)c1cn(-c2cncc(F)c2)nc1C(F)(F)F [Compound A48] | 1 | 1 | 1 | 0 | 3 | 1 | 1 | 1 | 2 | 3 | 4 | 1 |
| CN(C(=O)N(C)C(C)(C)C)c1cn(-c2cncnc2)nc1C(F)(F)F [Compound A51] | 0 | 0 | 0 | 0 | 1 | 1 | 1 | 2 | 1 | 2 | 2 | 0 |
| Cc1nn(-c2cncnc2)cc1N(C)C(=O)Nc1ccc(C#N)cc1 [Compound A52] | 0 | 0 | 0 | 0 | 0 | 0 | 0 | 0 | 0 | 0 | 0 | 0 |
| Cc1nn(-c2cncnc2)cc1N(C)C1=NCCCCO1 [Compound A53] | 0 | 0 | 0 | 0 | 0 | 0 | 0 | 0 | 1 | 0 | 0 | 0 |
| C=CCN(C(=O)OC(C)(C)C)c1cn(-c2cncc(F)c2)nc1C [Compound A54] | 0 | 0 | 0 | 0 | 0 | 0 | 1 | 0 | 1 | 1 | 1 | 0 |
| CCN(C(=O)OC(C)(C)C)c1cn(-c2cncc(F)c2)nc1C(F)(F)F [Compound A55] | 0 | 0 | 0 | 0 | 0 | 0 | 0 | 0 | 0 | 0 | 0 | 0 |
| CCN(C(=O)OC(C)(C)C)c1cn(-c2cncnc2)nc1C(F)(F)F [Compound A56] | 0 | 0 | 0 | 0 | 1 | 0 | 1 | 1 | 0 | 1 | 1 | 0 |

Source: patent US10905123B2, “Herbicidal compounds” (Syngenta Participations AG, priority 2015, dated 2021)
